As a reminder, the IC50 is the point on the concentration scale where inhibition reaches its midpoint. A high value points to a need for much substance. By EC50 is commonly meant the midpoint of the concentration-response curve.

Each structure is given as a SMILES string. Read-outs that look alike come from different tables or passages of the source.

One test addresses human KHK-C (Homo sapiens (Human), UniProt P50053). Kind of test: KHK Biochemical Assay (IC50), ADP-Glo, KHK-C. The note with it: average of at least two separate assays. The method, boiled down: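 Luminescent ADP-Glo read-out of ADP made by His-tagged KHK (BL21 (DE3) expression, Ni-NTA). Enzyme and compound sat together 30 min before ATP/fructose addition, then reacted 4 h at RT in Hepes pH 7.4 buffer with KCl, MgCl2, Triton-X. Quench 1 h, detection 1 h.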
Background: ADP-Glo first removes unused ATP, then detects ADP through luciferase.

In a further test the test system is HepG2 cells. Description: F1P Cell-Based Assay (EC50), 13C6-fructose-1-phosphate in HepG2 cells (cell culture medium or 50% human plasma).
The mark [1] stands for this setting: Homo sapiens, HepG2, HepG2 cells, 50% human plasma, read-out: F1P 50% HP EC50.
Setting [2] is: Homo sapiens, HepG2, read-out: F1P 10% FBS EC50, HepG2 cells, cell culture medium (10% FBS).
The mark [3] stands for this setting: HepG2 cells, 50% human plasma, read-out: F1P 50% HP EC50.
The mark [4] stands for this setting: read-out: F1P 10% FBS EC50, HepG2 cells, cell culture medium (10% FBS).

human KHK-C, sequence (P50053 whole entry): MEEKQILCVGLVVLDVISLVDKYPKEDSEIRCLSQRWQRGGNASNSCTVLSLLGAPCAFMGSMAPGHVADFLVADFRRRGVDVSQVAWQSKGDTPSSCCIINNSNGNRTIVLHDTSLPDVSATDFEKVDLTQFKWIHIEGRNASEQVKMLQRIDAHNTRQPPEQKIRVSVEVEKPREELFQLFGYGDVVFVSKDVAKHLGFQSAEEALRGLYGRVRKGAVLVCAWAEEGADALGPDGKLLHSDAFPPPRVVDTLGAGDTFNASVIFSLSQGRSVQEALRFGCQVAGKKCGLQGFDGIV

`C[C@H]1[C@H](O)CN1c1nc(-c2cccc(N=S3(=O)CCNCC3)c2)c2c(n1)C(F)(F)CC2` [Example 672, (2S,3R)-1-[7,7-difluoro-4-[3-[(1-oxo-1,4-thiazinan-1-ylidene)amino]phenyl]-5,6-dihydroeyelopenta[d]pyrimidin-2-yl]-2-methyl-azetidin-3-ol] displayed a concentration for half-maximal inhibition (IC50) on human KHK-C of 33.2 nM. The EC50 in the test on HepG2 cells (setting [1]) was determined as 105 nM; with HepG2 cells (setting [2]), 56.2 nM.
As to `C[C@H]1[C@H](F)CN1c1nc(-c2ccc3c(c2)S(=O)(=O)CC3NS(C)(=O)=O)c2c(n1)C(F)(F)CC2` (stereo partly drawn) [Example 674, N-[6-[7,7-difluoro-2-[(2S,3R)-3-fluoro-2-methyl-azetidin-1-yl]-5,6-dihydrocyclopenta[d]pyrimidin-4-yl]-1,1-dioxo-2,3-dihydrobenzothiophen-3-yl]methanesulfonamide], the 50% inhibitory concentration (IC50) against human KHK-C was determined as 0.2 nM. The concentration giving a half-maximal response (EC50) with HepG2 cells (setting [1]) was 232 nM; in the test with HepG2 cells (setting [2]) it was 3 nM.
Regarding `CS(=N)(=O)c1cccc(-c2nc(N3CC[C@@H]3C#N)nc3c2CCC3(F)F)c1` (stereo partly drawn) [Example 709, (2R)-1-(7,7-difluoro-4-(3-(S-methylsulfonimidoyl)phenyl)-6,7-dihydro-5H-cyclopenta[d]pyrimidin-2-yl)azetidine-2-carbonitrile], the IC50 on human KHK-C turned out to be 41.7 nM. Besides, the values for the EC50 in the test with HepG2 cells (setting [1]) and with HepG2 cells (setting [2]) were 101 nM and 75.2 nM, respectively.
In the case of `C[C@H]1[C@H](F)CN1c1nc(-c2cccc(S(C)(=N)=O)c2)c2c(n1)C(F)(F)CC2` (stereo partly drawn) [Example 710, (3-(7,7-difluoro-2-((2S,3R)-3-fluoro-2-methylazetidin-1-yl)-6,7-dihydro-5H-cyclopenta[d]pyrimidin-4-yl)phenyl)(imino)(methyl)-λ^6-sulfanone], the concentration for half-maximal inhibition (IC50) at human KHK-C is 7.2 nM. In addition, the half-maximal effective concentration (EC50) came out at 42.6 nM with HepG2 cells (setting [1]) and 12.9 nM in the test with HepG2 cells (setting [2]).
At human KHK-C, `C[C@H]1[C@H](O)CN1c1nc(-c2ccc(F)c(S(C)(=N)=O)c2)c2c(n1)C(F)(F)CC2` (stereo partly drawn) [Example 723, (5-(7,7-difluoro-2-((2S,3R)-3-hydroxy-2-methylazetidin-1-yl)-6,7-dihydro-5H-cyclopenta[d]pyrimidin-4-yl)-2-fluorophenyl)(imino)(methyl)-λ^6-sulfanone] displayed a concentration for half-maximal inhibition (IC50) of 19 nM. The 50% effective concentration (EC50) is 41.3 nM with HepG2 cells (setting [1]) and 44.3 nM with HepG2 cells (setting [2]).
`C[C@H]1[C@H](O)CN1c1nc(-c2cc(F)cc(S(C)(=N)=O)c2)c2c(n1)C(F)(F)CC2` (some centres unmarked) [Example 724]: at human KHK-C, the midpoint of inhibition, the IC50, lay at 25.4 nM. Moreover, the EC50 was 166 nM in the test on HepG2 cells (Homo sapiens, HepG2, read-out: F1P 10% FBS EC50) and 234 nM with HepG2 cells (Homo sapiens, HepG2, read-out: F1P 50% HP EC50).
In turn, `C[C@H]1CCN1c1nc2c(c(-c3ccc4c(c3)S(=N)(=O)CCO4)n1)CCC2` (some centres unmarked) [Example 726] displayed a half-maximal inhibitory concentration (IC50) on human KHK-C of 16.7 nM. The concentration giving a half-maximal response (EC50) with HepG2 cells (setting [1]) was 306 nM; with HepG2 cells (setting [2]), 62.1 nM.
With `C[C@H]1CCN1c1nc(-c2cc3c(c(CNS(C)(=O)=O)c2)OCC3)c2c(n1)C(F)(F)CC2` [Example 762, N-[[5-[7,7-difluoro-2-[(2S)-2-methylazetidin-1-yl]-5,6-dihydrocyclopenta[d]pyrimidin-4-yl]-2,3-dihydrobenzofuran-7-yl]methyl]methanesulfonamide], 2 nM corresponded to half-maximal inhibition on human KHK-C (IC50). Also, the concentration for a half-maximal effect (EC50) amounted to 159 nM with HepG2 cells (setting [1]) and 11.4 nM in the test with HepG2 cells (setting [2]).
At human KHK-C, `CCOc1ccc(-c2nc(N3C[C@@H](O)[C@@H]3C)nc3c2CCC3(F)F)cc1S(N)(=O)=O` [Example 764, 5-[7,7-difluoro-2-[(2S,3R)-3-hydroxy-2-methyl-azetidin-1-yl]-5,6-dihydrocyclopenta[d]pyrimidin-4-yl]-2-ethoxy-benzenesulfonamide] had a 50% inhibitory concentration (IC50) of 5.5 nM. The concentration for a half-maximal effect (EC50) stood at 22.1 nM in the test on HepG2 cells (setting [1]) and 8.9 nM in the test on HepG2 cells (setting [2]).
`C[C@H]1CCN1c1nc(-c2ccc3c(c2)CNC3)c2c(n1)C(F)(F)CC2` [Example 765, 7,7-difluoro-4-isoindolin-5-yl-2-[(2S)-2-methylazetidin-1-yl]-5,6-dihydrocyclopenta[d]pyrimidine]: half-maximal inhibition against human KHK-C (IC50) required 7.7 nM. For the same molecule, the half-maximal effective concentration (EC50) amounted to 53.2 nM in the test with HepG2 cells (setting [1]) and 15.5 nM with HepG2 cells (setting [2]).
Consider `CC(=O)NCc1cc(-c2nc(N3C[C@@H](O)[C@@H]3C)nc3c2CCC3(F)F)cc2c1OCC2` [Example 766, N-[[5-[7,7-difluoro-2-[(2S,3R)-3-hydroxy-2-methyl-azetidin-1-yl]-5,6-dihydrocyclopenta[d]pyrimidin-4-yl]-2,3-dihydrobenzofuran-7-yl]methyl]acetamide], for which the 50% inhibitory concentration (IC50) on human KHK-C turned out to be 11.8 nM. For the same molecule, the EC50 was 150 nM in the test with HepG2 cells (setting [3]) and 38.4 nM in the test with HepG2 cells (setting [4]).
Turning to `CC(=O)NC1COc2cc(-c3nc(N4CC[C@@H]4C)nc4c3CCC4(F)F)ccc21` (stereo partly drawn) [Example 767, N-[6-[7,7-difluoro-2-[(2S)-2-methylazetidin-1-yl]-5,6-dihydrocyclopenta[d]pyrimidin-4-yl]-2,3-dihydrobenzofuran-3-yl]acetamide], the IC50 at human KHK-C was found to be 4.8 nM. For the same molecule, the 50% effective concentration (EC50) was found to be 97.9 nM with HepG2 cells (setting [1]) and 20.9 nM with HepG2 cells (setting [2]).
With `CNC1(c2ccc(-c3nc(N4C[C@@H](F)[C@@H]4C)nc4c3CCC4(F)F)cc2)CS(=O)(=O)C1` [Example 770, 3-(4-(7,7-difluoro-2-((2S,3R)-3-fluoro-2-methylazetidin-1-yl)-6,7-dihydro-5H-cyclopenta[d]pyrimidin-4-yl)phenyl)-3-(methylamino)thietane 1,1-dioxide], the IC50 on human KHK-C was determined as 5.7 nM. Also, the figures for the EC50 with HepG2 cells (setting [1]) and with HepG2 cells (setting [2]) were 156 nM and 44.3 nM, respectively.
The corresponding values for `C[C@H]1[C@H](F)CN1c1nc(-c2ccc(C3(N)CS(=O)(=O)C3)cc2)c2c(n1)C(F)(F)CC2` [Example 772] are 1 nM, 33.8 nM and 10.5 nM.
The molecule `C[C@H]1CCN1c1nc(-c2ccc(C(N)CS(C)(=O)=O)cc2)c2c(n1)C(F)(F)CC2` (stereo partly drawn) [Example 774, 1-(4-(7,7-difluoro-2-((S)-2-methylazetidin-1-yl)-6,7-dihydro-5H-cyclopenta[d]pyrimidin-4-yl)phenyl)-2-(methylsulfonyl)ethan-1-amine] had an IC50 against human KHK-C of 2.1 nM. For the same molecule, the EC50 with HepG2 cells (setting [2]) came out at 11.8 nM.
With `CS(=O)(=O)CC(N)c1ccc(-c2nc(N3CC[C@@H]3CF)nc3c2CCC3(F)F)cc1` (stereo partly drawn) [Example 780, 1-(4-(7,7-difluoro-2-((R)-2-(fluoromethyl)azetidin-1-yl)-6,7-dihydro-5H-cyclopenta[d]pyrimidin-4-yl)phenyl)-2-(methylsulfonyl)ethan-1-amine], the midpoint of inhibition against human KHK-C, the IC50, lay at 4.8 nM. The half-maximal effective concentration (EC50) came out at 35 nM with HepG2 cells (setting [1]) and 22.8 nM in the test with HepG2 cells (setting [2]).
`NC1(c2ccc(-c3nc(N4CC(F)(F)C4CO)nc4c3CCC4(F)F)cc2)CS(=O)(=O)C1` (centres unmarked) [Example 782, 3-amino-3-(4-(2-(3,3-difluoro-2-(hydroxymethyl)azetidin-1-yl)-7,7-difluoro-6,7-dihydro-5H-cyclopenta[d]pyrimidin-4-yl)phenyl)thietane 1,1-dioxide] returned a 50% inhibitory concentration (IC50) against human KHK-C of 6.3 nM. For the same molecule, the concentration for a half-maximal effect (EC50) in the test on HepG2 cells (setting [1]) was 130 nM; with HepG2 cells (setting [2]), 135 nM.
Taken in the same sequence, the figures for `C[C@H]1[C@@H](F)CN1c1nc(-c2ccc(C3(N)CS(=O)(=O)C3)cc2)c2c(n1)C(F)(F)CC2` [Example 785] were 0.7 nM, 23.7 nM and 15.2 nM.
`C[C@H]1[C@H](O)CN1c1nc([C@H]2CC(NS(C)(=O)=O)c3ccccc3O2)c2c(n1)C(F)(F)CC2` (stereo partly drawn) [Example 786, N—((R)-(7,7-difluoro-2-((2S,3R)-3-hydroxy-2-methylazetidin-1-yl)-6,7-dihydro-5H-cyclopenta[d]pyrimidin-4-yl)chroman-4-yl)methanesulfonamide]: the concentration for half-maximal inhibition (IC50) on human KHK-C was found to be 6.1 nM. For the same molecule, the EC50 in the test with HepG2 cells (setting [3]) was 97.6 nM; with HepG2 cells (setting [4]) it was 58 nM.
Turning to `C[C@H]1CCN1c1nc(-c2cccc(C3(N)CS(=O)(=O)C3)c2)c2c(n1)C(F)(F)CC2` [Example 790, (S)-3-amino-3-(3-(7,7-difluoro-2-(2-methylazetidin-1-yl)-6,7-dihydro-5H-cyclopenta[d]pyrimidin-4-yl)phenyl)thietane 1,1-dioxide], half-maximal inhibition against human KHK-C (IC50) required 14.2 nM. Also, the EC50 in the test on HepG2 cells (setting [1]) was found to be 104 nM; in the test on HepG2 cells (setting [2]) it was 29 nM.
Molecule `N#CCC1CCN1c1nc(-c2ccc3c(c2)S(=O)(=O)CCNC3)c2c(n1)C(F)(F)CC2` (centres unmarked) [Example 791, 2-(1-(4-(1,1-dioxido-2,3,4,5-tetrahydrobenzo[f][1,4]thiazepin-8-yl)-7,7-difluoro-6,7-dihydro-5H-cyclopenta[d]pyrimidin-2-yl)azetidin-2-yl)acetonitrile] yielded a half-inhibitory concentration (IC50) against human KHK-C of 80.5 nM. In addition, the results for the concentration for a half-maximal effect (EC50) with HepG2 cells (setting [1]) and with HepG2 cells (setting [2]) were greater than 500 nM and 316 nM, respectively.
`CS(=O)(=O)N[C@H]1COc2cc(-c3nc(N4CC(F)(F)C4CO)nc4c3CCC4(F)F)ccc21` (stereo partly drawn) [Example 792, N-((3R)-6-(2-(3,3-difluoro-2-(hydroxymethyl)azetidin-1-yl)-7,7-difluoro-6,7-dihydro-5H-cyclopenta[d]pyrimidin-4-yl)-2,3-dihydrobenzofuran-3-yl)methanesulfonamide] yielded an IC50 against human KHK-C of 2.2 nM. Also, the EC50 came to 140 nM with HepG2 cells (setting [1]) and 57.7 nM in the test with HepG2 cells (setting [2]).
At human KHK-C (ADP-Glo), `C[C@H]1[C@H](O)CN1c1nc(-c2ccc(C3(N)CCS(=O)(=O)C3)cc2)c2c(n1)C(F)(F)CC2` (some centres unmarked) [Example 793] had a concentration for half-maximal inhibition (IC50) of 4.8 nM. Besides, the EC50 in the test on HepG2 cells (setting [1]) worked out at 75.5 nM; in the test with HepG2 cells (setting [2]), 55.6 nM.
At human KHK-C (ADP-Glo), `C[C@H]1[C@H](O)CN1c1nc(-c2ccc3c(c2)C(F)(F)CNC3)c2c(n1)C(F)(F)CC2` [Example 807, (2S,3R)-1-[4-(4,4-difluoro-2,3-dihydro-1H-isoquinolin-6-yl)-7,7-difluoro-5,6-dihydrocyclopenta[d]pyrimidin-2-yl]-2-methyl-azetidin-3-ol] returned an IC50 of 15.7 nM. The 50% effective concentration (EC50) with HepG2 cells (setting [1]) amounted to 99.4 nM; with HepG2 cells (setting [2]) it was 35.2 nM.

These data come from patent US12410160B2 (Gilead Sciences, Inc., priority 2021, dated 2025).
